{
  "source": "patent US12109253B2",
  "about": "“Use of IGFBP7 for treating malaria” (AGENCY FOR SCIENCE, TECHNOLOGY AND RESEARCH, priority 2019, dated 2024)",
  "key": {"P. falciparum": {"tested_on": "P. falciparum", "test": "Rosetting assay (percentage of IRBC that form rosettes), P. falciparum", "type": "cell-based, Plasmodium falciparum", "method": "Rosetting assay was conducted when 70% of the parasite population reached late stages (late trophozoites and schizonts) unless stated otherwise. The parasite culture suspension was stained subvitally with Giemsa (5% stain working concentration) for 20 minutes. Subsequently, 7.6 μl stained suspension was pipetted onto a clean glass slide, immediately covered with a 22×32 mm glass cover slip. The wet mount was examined with light microscope using 1000× magnification. Rosetting rate (percentage of rosetting IRBCs) was defined as the percentage of IRBC (over 200 recruited IRBC) that form rosettes. Experiments were conducted in blinded manner.\nFollowing data review, coupled with critical information (i.e. the protein's subcellular location and cellular functions) from UNIPROT, candidates were shortlisted for further validation. The parasite culture suspensions were incubated with CSMT and antibodies against the shortlisted proteins (see Table 6, items 35, 37, 39-41) and tested in rosetting assay at a final concentration of 25 μg/ml.\nThe parasite culture suspension was divided into three groups, one served as control, the second group was added with recombinant human IGFBP7 (final concentration 100 ng/ml), and the third group was mixed with CSMT (CSMT:parasite culture=1:3). After one hour of incubation under in vitro cultivation conditions, rosetting assay was conducted. Separately, a portion of the IGFBP7 suspension was heat-denatured at 95° C. for one hour, prior to use in rosetting assay.\nParasite cultures were incubated with IGFBP7 (working concentrations 0-25,000 ng/ml) prior to rosetting assay. Time course experiments were performed with laboratory-adapted P. falciparum lines (3D7, MKK183, FVT402, FVT201, WPP3065) incubated with IGFBP7 (100 ng/ml). Rosetting assay was conducted after five minutes, using 7 μl of the suspension. The remaining suspension was kept back into the incubator. Rosetting assay was repeated at five minute-intervals until one hour-post-IGFBP7 exposure. Reversibility of IGFBP7-mediated rosette-stimulation was also tested. Parasite lines (3D7, MKK183, FVT402, FVT201, WPP3065) were incubated with IGFBP7 (100 ng/ml) and rosetting assay was conducted with 7 μl of the suspension. The remaining suspension was centrifuged at 1500 g for five minutes. Supernatant was removed, and the pellet was washed thrice with culture medium, followed by re-suspension with culture medium. Five minutes later, 7 μl of the suspension was taken for rosetting assay, subsequently repeated at five minute-intervals up to one-hour post-IGFBP7 removal.\nMagnetic activated cell sorter (MACS)-sorted late stage-IRBC (purity 95%) were trypsinized at different working concentrations. The first group was mixed with enzyme trypsin (final trypsin concentration of 10 μg/ml), and the second was mixed with enzyme trypsin (final trypsin concentration of 1 mg/ml). The third served as untreated control. The cells were incubated at 37° C. for 30 minutes. After that, the cells were washed with serum-enriched medium for three times. Each group was incubated with or without IGFBP7 (100 ng/ml) prior to rosetting assay. P. falciparum line CS2 deficient of SBP1 [(SBP1-KO-CS2), which lacks P. falciparum erythrocyte membrane protein 1 (PFEMP1) on its IRBC surface] and its wild type (CS2-WT) counterpart were cultured as described. Their rosetting rates post-incubation with IGFBP7 at different concentrations were determined. P. falciparum clones NF54 VAR2CSA_WT and NF54_T934D (cannot express PfEMP1 variant VAR2CSA on IRBC surface^32) were cultivated. Experiments were conducted when parasite population reached late stages. For each parasite line, two conditions were applied; one was incubated with IGFBP7 (100 ng/ml) whereas the other one acted as IGFBP7-free control. Rosetting assay was conducted afterwards. Five replicates were conducted for each experiment setting. […]"}, "THP-1 [1]": {"tested_on": "THP-1", "test": "Zymosan A phagocytosis by THP-1 (control experiment)", "type": "cell-based, human", "details": "IGFBP7 100 ng/ml one hour, then Zymosan A 10 μg/ml one hour", "method": "THP-1 is cultivated and expanded into three batches. For each batch of culture, 1×10^6 cells were incubated with IGFBP7 (working concentration 100 ng/ml) for one hour at in vitro cultivation conditions. Another set of cells acted as IGFBP7-free control. Subsequently, Zymosan A (working concentration 10 μg/ml) was added to both sets of cells and incubated for another one hour at in vitro cultivation conditions. Supravital staining with Giemsa was done for 15 minutes following this. Using wet mount technique, the percentage of THP-1 cells which has engulfed Zymosan A was determined as phagocytosis rate by recruiting 1,000 THP-1 cells. The experiment was repeated with the other two batches of THP-1 culture. And all the steps were repeated for another two times using THP-1 cultures thawed at different time points. P. falciparum lines (3D7, MKK183, FVT402, FVT201, CS2_WT) were incubated with or without IGFBP7 in serum-enriched medium prior to rosetting assay. Subsequently, THP-1 were added. Using wet mount technique, the IRBC phagocytosis rates were determined following the same formula to determine phagocytosis rate in the Zymosan A experiment. […]"}, "THP-1 [2]": {"tested_on": "THP-1", "test": "IRBC phagocytosis by THP-1", "type": "cell-based, human"}},
  "note": "Values joined by “and” are separate entries in the source; they are usually repeats but may differ in a detail not shown here. Equal values may be shown once.",
  "data": [
    {"substance": "insulin-like growth factor binding protein 7 [IGFBP7]", "values": [
      {"measurement": "effect on rosetting rates with VWF in Albumax medium", "setting": "P. falciparum; 0.25% Albumax II medium, IGFBP7 100 ng/ml, VWF 0-2.0 IU/ml, no TSP-1", "value": "did not significantly increase rosetting rates"},
      {"measurement": "IGFBP7-induced rosetting in filtered serum", "setting": "P. falciparum; 20% human serum filtered with 0.45 μm filter, IGFBP7 100 ng/ml", "value": "abolished"},
      {"measurement": "rosette-stimulating capacity after heat denaturation", "setting": "P. falciparum; 95° C. for one hour, Pf n=5", "value": "abolished"},
      {"measurement": "effect on rosetting rate", "setting": "P. falciparum; CS2 wild-type parasite", "value": "increased"},
      {"measurement": "effect on rosetting of trypsin-treated IRBC", "setting": "P. falciparum; IRBC treated with 10 μg/ml or 1 mg/ml trypsin, IGFBP7 100 ng/ml, Pf n=5", "value": "did not significantly alter rosetting"},
      {"measurement": "rosetting rates", "setting": "P. falciparum; NF54 T934D (no VAR2CSA on IRBC surface), IGFBP7 100 ng/ml, one hour, biological replicates", "value": "0.5% (2×) and 1.5% (2×) and 1.0%"},
      {"measurement": "rosetting rates", "setting": "P. falciparum; NF54 VAR2CSA_WT, IGFBP7 100 ng/ml, one hour, biological replicates", "value": "5.0% and 7.0% and 4.5% and 4.0% and 6.5%"},
      {"measurement": "rosetting rates", "setting": "P. falciparum; Pf co-incubated with THP-1, IGFBP7 100 ng/ml, biological replicates", "value": "11.0% and 13.0% and 16.0% and 9.0% and 10.0%"},
      {"measurement": "rosetting rates", "setting": "P. falciparum; Pf co-incubated with monocytes, IGFBP7 100 ng/ml, biological replicates", "value": "14.0% and 18.0% and 15.0% and 17.0% and 10.0%"},
      {"measurement": "concentration at which significant rosette-stimulation noted", "setting": "P. falciparum; Pf n=7, one hour incubation, 0-25,000 ng/ml tested", "value": 50, "unit": "ng/mL"},
      {"measurement": "concentration from which significant rosette-stimulation was noted", "setting": "P. falciparum; PfCS2-WT", "value": 100, "unit": "ng/mL"},
      {"measurement": "effect on rosetting rate", "setting": "P. falciparum; SBP1-KO-CS2 (no PfEMP1 on IRBC surface)", "value": "no effect"},
      {"measurement": "effect on rosetting with URBC of different ABO blood groups", "setting": "P. falciparum; URBC groups A, B, O, AB, rhIGFBP7 100 ng/ml, Pf n=7", "value": "significantly increase rosetting rates regardless of the blood groups"},
      {"measurement": "rosetting with heparinase-treated URBC", "setting": "P. falciparum; URBC treated with heparinase I or III 25 μg/ml, purified Pf IRBC", "value": "did not induce rosetting"},
      {"measurement": "rosetting rates of IRBCs detached from hCMEC/D3", "setting": "P. falciparum; after co-incubation with URBCs and IGFBP7, all parasite lines recruited", "value": "5-25%"},
      {"measurement": "rosette formation prior to THP-1 exposure", "setting": "P. falciparum; five different P. falciparum lines, IGFBP7-incubated", "value": "formed more rosettes"},
      {"measurement": "minimum time to significantly stimulate rosetting", "setting": "P. falciparum; lab-adapted Pf n=5, IGFBP7 100 ng/ml", "value": "≥ 15", "unit": "min"},
      {"measurement": "time after protein removal at which rosetting rates revert to baseline", "setting": "P. falciparum; lab-adapted Pf n=5, after IGFBP7 100 ng/ml exposure and washing", "value": 15, "unit": "min"},
      {"measurement": "rosetting rates", "setting": "P. falciparum; late ring stages (hour 16-26) of NHP1106, IGFBP7 100 ng/ml, replicates flask/cycle", "value": "8.5% and 7.0% (2×) and 8.0% (2×) and 6.0% (3×) and 5.0%"},
      {"measurement": "concentration at which rosette stimulation reaches a plateau", "setting": "P. falciparum; leukocyte-free parasite culture, P. falciparum isolates", "value": 100, "unit": "ng/mL"},
      {"measurement": "effect on rosetting rates in 2% serum", "setting": "P. falciparum; medium with only 2% serum, IGFBP7 100 ng/ml, no VWF added", "value": "could not increase rosetting rates"},
      {"measurement": "effect on phagocytosis ability of THP-1", "setting": "THP-1 [1]", "value": "increased"},
      {"measurement": "phagocytosis rates", "setting": "THP-1 [2]; THP-1, IGFBP7 100 ng/ml, Pf line NHP1106, biological replicates", "value": "10.0% (2×) and 5.0% and 11.0% and 8.0%"},
      {"measurement": "IRBC phagocytosis compared with non-IGFBP7-exposed counterparts", "setting": "THP-1 [2]; five different P. falciparum lines, IGFBP7-incubated prior to THP-1 exposure", "value": "significantly less phagocytosed"}
    ]}
  ]
}
